What was measured:
[1] = system: experimental allergic encephalomyelitis (EAE) model; assay: Experimental allergic encephalomyelitis (EAE) model, EAE scores; format: in vivo, Male C57BL/6 mice; details: MOG peptide-immunized mice; oral, 30 mg/kg in 0.5% MC, 10 ml/kg/administration, twice a day from post-immunization day 7; FIG. 1 and 2
[2] = molecular target: T1, Porcine kidney-derived DPP-IV (Sus scrofa, UniProt P22411); assay: DPPIV-inhibiting activity assay; format: biochemical; details: porcine kidney DPP-IV 10 mU/ml, Gly-Pro-p-nitroanilide 0.33 mM, 20 minutes, absorbance at 405 nm
T1 construct: Porcine kidney-derived DPP-IV was dissolved in a reaction buffer; from tissue; host or cells: porcine kidney
Method: DPPIV-Inhibiting Activity Assay
Porcine kidney-derived DPP-IV was dissolved in a reaction buffer (50 mM Tris-HCl (pH 7.4)/0.1% BSA) at a concentration of 10 mU/ml. After 110 μl of this solution had been combined with 15 μl of an agent, the mixture was incubated at room temperature for 20 minutes. 25 μl of 2 mM Gly-Pro-p-nitroanilide was added (to a final concentration of 0.33 mM) to the solution to initiate the enzyme reaction. The reaction time was 20 minutes. 25 μl of IN phosphoric acid solution was added to the reaction solution to quench the reaction.

T1 sequence (P22411 whole entry): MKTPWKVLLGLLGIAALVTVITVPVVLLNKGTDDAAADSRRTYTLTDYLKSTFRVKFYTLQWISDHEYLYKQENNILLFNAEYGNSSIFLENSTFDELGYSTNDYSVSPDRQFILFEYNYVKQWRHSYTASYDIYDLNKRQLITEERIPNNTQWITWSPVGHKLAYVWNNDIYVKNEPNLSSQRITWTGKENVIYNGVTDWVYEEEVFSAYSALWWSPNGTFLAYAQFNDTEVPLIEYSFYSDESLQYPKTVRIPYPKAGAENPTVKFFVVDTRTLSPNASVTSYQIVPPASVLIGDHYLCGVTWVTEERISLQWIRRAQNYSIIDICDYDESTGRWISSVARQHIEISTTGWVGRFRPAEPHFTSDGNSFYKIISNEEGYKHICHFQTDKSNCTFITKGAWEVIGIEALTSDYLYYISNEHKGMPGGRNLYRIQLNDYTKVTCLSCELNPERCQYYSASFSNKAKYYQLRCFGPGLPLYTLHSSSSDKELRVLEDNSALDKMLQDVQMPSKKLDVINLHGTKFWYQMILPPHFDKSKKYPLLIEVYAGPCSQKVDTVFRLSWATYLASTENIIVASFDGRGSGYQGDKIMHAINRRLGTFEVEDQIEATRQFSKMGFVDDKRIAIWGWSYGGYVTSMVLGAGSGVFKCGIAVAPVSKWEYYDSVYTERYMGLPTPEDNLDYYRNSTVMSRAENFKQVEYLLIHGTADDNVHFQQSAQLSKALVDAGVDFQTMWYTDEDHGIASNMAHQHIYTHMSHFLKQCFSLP

Row | Molecule | effect on development of EAE symptoms compared to control group (MC solution) [1] | IC50 [2] [nM]
1 | CC#CCn1c(N2CCNCC2)nc2c1c(=O)n(C)c(=O)n2C [Compound 1X, 7-(2-butynyl)-1,3-dimethyl-8-(piperazin-1-yl)-3,7-dihydropurine-2,6-dione] | definite suppressing effects | –
2 | CC#CCn1c(N2CCCC(N)C2)nc2cnn(C)c(=O)c21.O=C(O)C(F)(F)F (stereo not shown) [Example 120, 2-(3-Aminopiperidin-1-yl)-3-(2-butynyl)-5-methyl-3,5-dihydroimidazo[4,5-d]pyridazin-4-one trifluoroacetate] | definite suppressing effects | –
3 | CC#CCn1c(N2CCNCC2)nc2nc(Oc3ccccc3C(N)=O)n(C)c(=O)c21 [Example 122, 2-[7-(2-Butynyl)-1-methyl-6-oxo-8-(piperazin-1-yl)-6,7-dihydro-1H-purin-2-yloxy]benzamide] | definite suppressing effects | –
4 | Methyl 2-[7-(2-butynyl)-1-methyl-6-oxo-8-(piperazin-1-yl)-6,7-dihydro-1H-purin-2-yloxy]phenylacetate trifluoroacetate [Example 4] | – | 211
